These results are taken from patent publication US20240091203A1, “METHODS FOR TREATING NON-OBSTRUCTIVE HYPERTROPHIC CARDIOMYOPATHY” (Cytokinetics, Incorporated, priority 2022, published 2024).

Where only a bound is given, the exact number is not on record here.

This data set is described as follows: Phase 1 plasma pharmacokinetics, multiple-ascending dose (MAD) cohorts. It counts as in vivo, human. The note with it: for AUC24 / Cmax / Tmax: Day 1; for AUC24 / Cmax / AUCtau / Cmax, ss: geometric mean; for AUC24 / Cmax / Tmax / AUCtau / Cmax, ss / CLss/F / t1/2 / Tmax, ss: n = 6; for Tmax / Tmax, ss: median; for CLss/F / t1/2: mean ± SD. On the procedure:
Multiple-ascending dose (MAD) cohorts. The MAD cohorts also used a randomized, double-blind, placebo-controlled, sequential design.
Pharmacokinetic analyses. For all study groups, blood samples for PK assessment were obtained pre-dose, up to 12 times daily on day 1, and then at regular intervals throughout the study. Blood samples were collected according to the following schedule: SAD Cohorts: Day 1: pre-dose and 0.25, 0.5, 1, 1.5, 2, 2.5, 3, 4, 6, 8, 12, 16, 24, 36, 48, 72, 96, and 216 h post dose. MAD Cohorts (14-day Dosing): Day 1: pre-dose and 0.25, 0.5, 1, 1.5, 2, 2.5, 3, 4, 6, 8, and 12 h post dose; Days 2, 4, 5, 6, and 9: pre-dose (corresponding to trough samples following dosing on days 1, 3, 4, 5, and 8) and 1.5 h post dose; Days 3, 7, 8, 10, 11, 12, and 13: pre-dose (corresponding to trough samples following dosing on days 2, 6, 7, 9, 10, 11, and 12); Day 14: pre-dose and 0.25, 0.5, 1.5, 2, 2.5, 3, 4, 6, 8, 12, 16, 24, 36, 48, 72, and 168 h post dose. MAD Cohort (17-Day Dosing): Day 1: pre-dose and 0.25, 0.5, 1, 1.5, 2, 2.5, 3, 4, 6, 8, and 12 h post dose; Days 2, 4, 5, 6, and 9: pre-dose (corresponding to trough samples following dosing on days 1, 3, 4, 5, and 8) and 1.5 h post dose; Days 3, 7, 8, 10, 11, 12, 13, 14, 15, and 16: pre-dose (corresponding to trough samples following dosing on days 2, 6, 7, 9, 10, 11, and 12); Day 17: pre-dose and 0.25, 0.5, 1.5, 2, 2.5, 3, 5, 7, 9, 12, 24, 36, 48, 72, and 168 h post dose. CYPD6-PM Cohort: Day 1: pre-dose and 0.25, 0.5, 1, 1.5, 2, 2.5, 3, 4, 6, 8, 12, 16, 24, 36, 48, 72, 96, 216, 312, and 552 h post dose. Food-Effect Cohort: Day 1: pre-dose and 0.25, 0.5, 1, 1.5, 2, 2.5, 3, 4, 6, 8, 12, 16, 24, 36, 48, 72, 96, 144, and 216 h post dose. Standard non-compartmental methods were used to calculate PK parameters using Phoenix® WinNonlin® Version 7.0; actual sample collection times were utilized.
For the MAD cohort, the parameters were AUC24 and Cmax on day 1, plus AUC to the end of the dosing period (AUCtau) and Cmax on day 14 or 17. The statistical linear relationship between the In-transformed PK parameters and the In-transformed dose was verified by including the quadratic (ln Dose)^2 and cubic (ln Dose)^3 effects. […] The dose-proportionality analysis was performed using SAS® PROC MIXED.
An analysis of variance (ANOVA) model was conducted separately for each dose level; day was included as the fixed effect. Helmert contrasts were developed such that each time-point was compared with the mean of the subsequent time-points.

For `CCc1nc(-c2ccc3c(c2)CC[C@H]3NC(=O)c2cnn(C)c2)no1` [aficamten, (R)—N-(5-(5-ethyl-1,2,4-oxadiazol-3-yl)-2,3-dihydro-1H-inden-1-yl)-1-methyl-1H-pyrazole-4-carboxamide], for the setting “MAD 5 mg qd × 14 Days”, the AUC24 came out at 278 ng·h/mL; the maximum concentration (Cmax) (commonly the highest concentration seen after dosing) amounted to 28.0 ng/mL; the Tmax (as a rule, the time at which the peak concentration occurs) was determined as 1.3 h. For the same compound, under “MAD 5 mg qd, Day 14”, the AUCtau is 1320 ng·h/mL; the “Cmax, ss” value is 69.0 ng/mL; the CLss/F amounted to 3.9 ± 0.9 L/h; the t1/2 is reported as 86.4 ± 11.9 h. In addition, the “Tmax, ss” value (MAD 5 mg qd, Day 14) is 2.8 h. Besides, under “MAD 7.5 mg qd × 17 Days”, the Tmax turned out to be 0.8 h. In addition, under “MAD 7.5 mg qd, Day 17”, the AUCtau was found to be 2518 ng·h/mL; the “Cmax, ss” value stood at 147.6 ng/mL; the CLss/F turned out to be 3.1 ± 0.7 L/h; the t1/2 was 76.9 ± 14.5 h. Under “MAD 10 mg qd × 14 Days”, the AUC24 turned out to be 547 ng·h/mL, the peak concentration (Cmax) came to 54.4 ng/mL and the time to peak (Tmax) stood at 1.0 h. Also, under “MAD 10 mg qd, Day 14”, the AUCtau was 2632 ng·h/mL; the “Cmax, ss” value is 141.2 ng/mL; the CLss/F amounted to 3.9 ± 0.8 L/h; the t1/2 worked out at 79.8 ± 14.1 h. Besides, for the setting “MAD 10 mg qd, Day 14”, the “Tmax, ss” value amounted to 2.5 h. Besides, for the setting “MAD 5-mg and 7.5-mg doses”, the “steady state achieved by end of day” value worked out at 12 days. Where the note is “MAD 10-mg dose”, the “steady state achieved by end of day” value amounted to 10 days. In addition, where the note is “once-daily dosing”, the “time to steady state” value is given as at most 2 weeks.
